In patent publication US8080529B2, “Macrolides with anti-inflammatory activity” (Glaxo Group Limited, priority 2005, dated 2011):
Read-outs that look alike come from different tables or passages of the source.

Tests used:
IL-6 = assay: Inhibition of IL-6 production by stimulated human peripheral blood leukocytes in vitro; type: cell-based; conditions: for inhibition at 10 µM / inhibition at 50 µM: Homo sapiens, Leukocyte, read-out: Percentage of inhibition of IL-6 production
How it was run: (§1)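 Sandwich ELISA of supernatant cytokines; % inhibition = (1 − sample/stimulated untreated control)×100. Dextran-isolated human PBL were pretreated 2 h with 10 or 50 μM compound, then challenged overnight with LPS (2 μg/mL), PMA (1 μg/mL) or zymosan (120 μg/mL).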

A549 = assay: Cytotoxicity assay (MTT), A549 cell line; type: cell-based; conditions: 24 h
How it was run: (§2)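 Viability was read as MTT-formazan absorbance at 490 nm after 0.5-2 h with reagent. This followed 24 h compound exposure (50 μM, 12.5 μM) at 37° C in RPM medium. Result expressed as OD490 treated over untreated cells ×100.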

IL-1α = assay: Inhibition of IL-1 production by stimulated human peripheral blood leukocytes in vitro; type: cell-based; conditions: for inhibition at 10 µM / inhibition at 50 µM: Homo sapiens, Leukocyte, read-out: Percentage of inhibition of IL-1α production
Hep G2 = assay: Cytotoxicity assay (MTT), Hep G2 cell line; type: cell-based; conditions: 24 h
How it was run: as §2

IL-8 = assay: Inhibition of IL-8 production by stimulated human peripheral blood leukocytes in vitro; type: cell-based; conditions: for inhibition at 10 µM / inhibition at 50 µM: Homo sapiens, Leukocyte, read-out: Percentage of inhibition of IL-8 production
How it was run: as §1

[1] = system: human peripheral blood mononuclear cells (PBMC); assay: Effects on human T-cell proliferation in vitro (3H-thymidine incorporation); type: cell-based; conditions: for inhibition at 10 µM / inhibition at 50 µM: Homo sapiens, PBMC, read-out: Percentage of inhibition of proliferation of stimulated PBMC
Protocol: The influence of the various test compounds at two different concentrations (50 μM and 10 μM) on cell proliferation of human peripheral blood mononuclear cells (PBMC) was assessed. […] The cells were pulsed with 1 μCi of ^3H-thymidine (Amersham, USA) per well during the last 18 h of the culture, and were harvested on the 96-well filter (Packard Bioscience, USA) using a multiple cell harvester (Packard, USA). The incorporation of ^3H-thymidine in activated cells were measured using TopCount NXT (Packard, USA). […] The positive control refers to LPS-, PMA- or zymosan-stimulated samples that were not treated with test compounds.

TNF-α [2] = assay: Inhibition of TNF-α production by stimulated human peripheral blood leukocytes in vitro; type: cell-based; conditions: for inhibition at 10 µM / inhibition at 50 µM: Homo sapiens, Leukocyte, read-out: Percentage of inhibition of TNF-α production
How it was run: as §1

TNF-α [3] = assay: Lipopolysaccharide induced TNF-α production in Balb/cJ mice; type: in vivo; conditions: 10 mg/kg intraperitoneally, 30 min before LPS; 90 min after LPS

For `CC[C@H]1OC(=O)[C@H](C)[C@@H](O[C@H]2C[C@@](C)(OC)[C@@H](OC(=O)CCN(CC)CC)[C@H](C)O2)[C@H](C)[C@@H](O[C@@H]2O[C@H](C)C[C@H](N(C)C)[C@H]2O)[C@](C)(OC)C[C@@H](C)NC(=O)[C@H](C)[C@@H](O)[C@]1(C)O` [Example 3, 4″-O-(3-Diethylamino-Propionyl)-6-O-methyl-8a-aza-8a-homoerythromycin A], the inhibition at 10 µM (IL-6; 10 μM, LPS-stimulated PBL) was 56%, the inhibition at 10 µM (IL-6; 10 μM, PMA-stimulated PBL) was 60% and the inhibition at 10 µM (IL-6; 10 μM, zymosan-stimulated PBL) was 44%. For the same compound, the inhibition at 50 µM (IL-6; 50 μM, LPS-stimulated PBL) was 78%, the inhibition at 50 µM (IL-6; 50 μM, PMA-stimulated PBL) was 66% and the inhibition at 50 µM (IL-6; 50 μM, zymosan-stimulated PBL) was 74%. For the same compound, the “Percentage of inhibition of cell growth” value (A549; 12.5 μM) was 0%, the “Percentage of inhibition of cell growth” value (A549; 50 μM) was 0% and the inhibition at 10 µM (IL-1α; 10 μM, LPS-stimulated PBL) was 87%. For the same compound, the inhibition at 10 µM (IL-1α; 10 μM, PMA-stimulated PBL) was 73%, the inhibition at 10 µM (IL-1α; 10 μM, zymosan-stimulated PBL) was 88% and the inhibition at 50 µM (IL-1α; 50 μM, LPS-stimulated PBL) was 86%. The inhibition at 50 µM (IL-1α; 50 μM, PMA-stimulated PBL) was 68%, the inhibition at 50 µM (IL-1α; 50 μM, zymosan-stimulated PBL) was 91% and the “Percentage of inhibition of cell growth” value (Hep G2; 12.5 μM) was 0%. For the same compound, the “Percentage of inhibition of cell growth” value (Hep G2; 50 μM) was 0%, the inhibition at 10 µM (IL-8; 10 μM, LPS-stimulated PBL) was 48% and the inhibition at 10 µM (IL-8; 10 μM, PMA-stimulated PBL) was 30%. For the same compound, the inhibition at 10 µM (IL-8; 10 μM, zymosan-stimulated PBL) was 32%, the inhibition at 50 µM (IL-8; 50 μM, LPS-stimulated PBL) was 71% and the inhibition at 50 µM (IL-8; 50 μM, PMA-stimulated PBL) was 22%. It also gave an inhibition at 50 µM (IL-8; 50 μM, zymosan-stimulated PBL) of 16%, an inhibition at 10 µM ([1]; PHA, 10 μM) of 2% and an inhibition at 50 µM ([1]; PHA, 50 μM) of 75%. The inhibition at 10 µM ([1]; PMA + iono., 10 μM) was 17%, the inhibition at 50 µM ([1]; PMA + iono., 50 μM) was 81% and the inhibition at 10 µM (TNF-α [2]; 10 μM, LPS-stimulated PBL) was 72%. The inhibition at 10 µM (TNF-α [2]; 10 μM, PMA-stimulated PBL) was 91%, the inhibition at 10 µM (TNF-α [2]; 10 μM, zymosan-stimulated PBL) was 76% and the inhibition at 50 µM (TNF-α [2]; 50 μM, LPS-stimulated PBL) was 81%. For the same compound, the inhibition at 50 µM (TNF-α [2]; 50 μM, PMA-stimulated PBL) was 83% and the inhibition at 50 µM (TNF-α [2]; 50 μM, zymosan-stimulated PBL) was 96%.

For `CCC1OC(=O)C(C)C(OC2CC(C)(OC)C(OC(=O)CCN(CC)CC)C(C)O2)C(C)C(OC2OC(C)CC(N(C)C)C2O)C(C)(OC)CC(C)C(=O)NC(C)C(O)C1(C)O` (stereo not shown) [Example 8, 4″-O-(3-Diethylamino-propionyl)-6-O-methyl-9a-aza-9a-homoerythromycin A], the “Percentage of inhibition of IL-6 production” value (IL-6; 10 μM, LPS-stimulated PBL) was 16%, the “Percentage of inhibition of IL-6 production” value (IL-6; 10 μM, PMA-stimulated PBL) was 24% and the “Percentage of inhibition of IL-6 production” value (IL-6; 10 μM, zymosan-stimulated PBL) was 57%. For the same compound, the “Percentage of inhibition of IL-6 production” value (IL-6; 50 μM, LPS-stimulated PBL) was 63%, the “Percentage of inhibition of IL-6 production” value (IL-6; 50 μM, PMA-stimulated PBL) was 100% and the “Percentage of inhibition of IL-6 production” value (IL-6; 50 μM, zymosan-stimulated PBL) was 80%. For the same compound, the “Percentage of inhibition of IL-1α production” value (IL-1α; 10 μM, LPS-stimulated PBL) was 66%, the “Percentage of inhibition of IL-1α production” value (IL-1α; 10 μM, PMA-stimulated PBL) was 71% and the “Percentage of inhibition of IL-1α production” value (IL-1α; 10 μM, zymosan-stimulated PBL) was 86%. For the same compound, the “Percentage of inhibition of IL-1α production” value (IL-1α; 50 μM, LPS-stimulated PBL) was 83%, the “Percentage of inhibition of IL-1α production” value (IL-1α; 50 μM, PMA-stimulated PBL) was 86% and the “Percentage of inhibition of IL-1α production” value (IL-1α; 50 μM, zymosan-stimulated PBL) was 94%. The “Percentage of inhibition of IL-8 production” value (IL-8; 10 μM, LPS-stimulated PBL) was 38%, the “Percentage of inhibition of IL-8 production” value (IL-8; 10 μM, PMA-stimulated PBL) was 40% and the “Percentage of inhibition of IL-8 production” value (IL-8; 10 μM, zymosan-stimulated PBL) was 31%. The “Percentage of inhibition of IL-8 production” value (IL-8; 50 μM, LPS-stimulated PBL) was 79%, the “Percentage of inhibition of IL-8 production” value (IL-8; 50 μM, PMA-stimulated PBL) was 89% and the “Percentage of inhibition of IL-8 production” value (IL-8; 50 μM, zymosan-stimulated PBL) was 88%. For the same compound, the “Percentage of inhibition of proliferation of stimulated PBMC” value ([1]; PHA, 10 μM) was 96%, the “Percentage of inhibition of proliferation of stimulated PBMC” value ([1]; PHA, 50 μM) was 100% and the “Percentage of inhibition of proliferation of stimulated PBMC” value ([1]; PMA + iono., 10 μM) was 37%. For the same compound, the “Percentage of inhibition of proliferation of stimulated PBMC” value ([1]; PMA + iono., 50 μM) was 99%, the “% inhibition of TNF-α production (plasma)” value (TNF-α [3]) was 93% and the “Percentage of inhibition of TNF-α production” value (TNF-α [2]; 10 μM, LPS-stimulated PBL) was 51%. The “Percentage of inhibition of TNF-α production” value (TNF-α [2]; 10 μM, PMA-stimulated PBL) was 46%, the “Percentage of inhibition of TNF-α production” value (TNF-α [2]; 10 μM, zymosan-stimulated PBL) was 87% and the “Percentage of inhibition of TNF-α production” value (TNF-α [2]; 50 μM, LPS-stimulated PBL) was 85%. The “Percentage of inhibition of TNF-α production” value (TNF-α [2]; 50 μM, PMA-stimulated PBL) was 87% and the “Percentage of inhibition of TNF-α production” value (TNF-α [2]; 50 μM, zymosan-stimulated PBL) was 92%.
